Results from patent US20070167408A1, “NOVEL ALKYL PHOSPHOLIPID DERIVATIVES WITH REDUCED CYTOTOXICITY AND USES THEREOF” (ZENTARIS GmbH, priority 2005, published 2007).
≈ marks a conversion by molar mass, not a printed value. Where two headings read alike, the source gives them in different places.

How the values were obtained:
[1] = system: Aspergillus fumigatus 040-200167; assay: Anti-fungal broth microdilution (MIC), fungus C; assay type: cell-based; details: Aspergillus fumigatus, 040200167; filamentous protocol, more than 50% growth inhibition, 48 to 72 h
Experimental: (§1) Anti-fungal activity of selected compounds of the invention was assessed by means of anti-fungal susceptibility tests as follows.
(§2) The antifungal activities of the compounds of the invention against different fungi were measured according to standard broth microdilution methods of the US National Committee for Clinical Laboratory standards (NCCLS) for yeasts (NCCLS document M27-A, 1997) and filamentous fungi (NCCLS document M38-A, 2002).
(§3) Stock solutions of compounds of the invention were freshly prepared on the days of experiments equal to 1.28 mg/10 ml media. Serial dilutions were performed to achieve the following testing concentrations: 64 μg/ml, 32 μg/ml, 16 μg/ml, 8 μg/ml, 4 μg/ml, 2 μg/ml, 1 μg/ml, 0.5 μg/ml, 0.25 μg/ml and 0.125 μg/ml.
(§4) An inoculum of 10^6 CFU/ml of the fungi strain was prepared in the appropriate medium and transferred to test tubes for incubation.
(§5) The method is used to determine the minimum inhibitory concentrations (MIC) of drugs on fungi strains. […] For the filamentous fungi protocol, MIC determination took place after 48 to 72 h of culture at 35° C. and was defined at that concentration which produced more than 50% visible growth inhibition.

[2] = system: Candida albicans ATCC 10231; assay: Anti-fungal broth microdilution (MIC), fungus D; assay type: cell-based; details: yeast protocol, more than 80% inhibition, 48 h
Experimental: as §1, §2, §3, §4, §5

[3] = system: Cryptococcus neoformans ATCC 90112; assay: Anti-fungal broth microdilution (MIC), fungus H; assay type: cell-based; details: yeast protocol, more than 80% inhibition, 48 h
Experimental: as §1, §2, §3, §4, §5

[4] = system: Aspergillus fumigatus ATCC 204305; assay: Anti-fungal broth microdilution (MIC), fungus A; assay type: cell-based; details: Aspergillus fumigatus, ATCC204305; filamentous protocol, more than 50% growth inhibition, 48 to 72 h
Experimental: as §1, §2, §3, §4, §5

[5] = system: Candida parapsilosis ATCC 22019; assay: Anti-fungal broth microdilution (MIC), fungus G; assay type: cell-based; details: yeast protocol, more than 80% inhibition, 48 h
Experimental: as §1, §2, §3, §4, §5

[6] = system: Cryptococcus neoformans H99; assay: Anti-fungal broth microdilution (MIC), fungus I; assay type: cell-based; details: yeast protocol, more than 80% inhibition, 48 h
Experimental: as §1, §2, §3, §4, §5

[7] = system: Candida albicans TS3; assay: Anti-fungal broth microdilution (MIC), fungus F; assay type: cell-based; details: yeast protocol, more than 80% inhibition, 48 h
Experimental: as §1, §2, §3, §4, §5

[8] = system: Aspergillus fumigatus 322-384; assay: Anti-fungal broth microdilution (MIC), fungus B; assay type: cell-based; details: Aspergillus fumigatus, 322384; filamentous protocol, more than 50% growth inhibition, 48 to 72 h
Experimental: as §1, §2, §3, §4, §5

[9] = system: Cryptococcus gattii ATCC 32608; assay: Anti-fungal broth microdilution (MIC), fungus J; assay type: cell-based; details: yeast protocol, more than 80% inhibition, 48 h
Experimental: as §1, §2, §3, §4, §5

[10] = system: Candida albicans ATCC 90028; assay: Anti-fungal broth microdilution (MIC), fungus E; assay type: cell-based; details: yeast protocol, more than 80% inhibition, 48 h
Experimental: as §1, §2, §3, §4, §5

[11] = system: SKOV-3 (human ovary adenocarcinoma) cells; assay: XTT cytotoxicity assay, SKOV-3 cells; assay type: cell-based; details: second set of experiments
Experimental: On the first day of the experiment cells were harvested from exponential phase cultures by trypsination, counted and plated into 96 well flat-bottom micro titer plates depending on the cell line as listed below: [table] After a 24 h recovery to allow the cells to resume exponential growth, the test compounds were diluted immediately prior to use and transferred in 25 μl volume to the wells. Following 2 days of continuous drug exposure 50 μl of freshly prepared XTT-PMS solution {2% 0.386 mg/ml PMS (N-Methyl Dibenzopyrazine Methylsulphate; Sigma, Cat. No. […] Serva, Cat. No. 38450) in RPMI 1640 medium without phenol red} was added to the wells. To measure the proportion of living cells, the cells were incubated for 3 h with XTT-PMS reagent at 37° C., 5% CO2, humidified atmosphere allowing to form the formazan salt. […] Inhibition curves were generated and IC50 values calculated by using GraphPad Prism.

[12] = system: RKOp21 (human colon adenocarcinoma) cells; assay: XTT cytotoxicity assay, RKOp21 cells; assay type: cell-based; details: for RKOp21 % INH [31.6 μM]: second set of experiments; for IC50: XTT, 48 h exposure, read-out: RKOp21 [IC50 (μM)]
Experimental: (§6) Cytotoxicity of selected compounds of the invention against different mammalian cell lines was assessed as follows.
(§7) Human tumor cell lines KB/HeLa (ATCC CCL17, human cervix carcinoma), PC3 (ATCC CRL1435, human prostate carcinoma) and RKOp21 (human colon adenocarcinoma; Schmidt et al., Oncogene 2000, 19: 2423-2429) cells were used in an automated XTT screening assay for the assessment of cytotoxicity.
(§8) The XTT assay quantifies cellular metabolic activity which correlates with cell viability and cell number. Test compounds (selected compounds of the invention and known substances as controls) are dissolved in culture medium at 600 μM and added to the tumor cells in 10 different concentrations in a semi-logarithmic fashion starting from 100 μM as highest concentration.
(§9) In a second set of experiments employing PC3, RKOp21 and SKOV-3 (ATCC HTB-77, human ovary adenocarcinoma) cells, test and reference compounds were dissolved in 70% Ethanol/30% H2O in a stock concentration of 10 mM and diluted in cell culture medium to yield either 31.6 μM (PC3 and RKOp21) or 100 μM (SKOV-3) final concentration.
(§10) 48 h later cellular metabolic activity of cells treated with test compounds is quantified by measurement of the absorbance at 490 nm (conversion of XTT dye) in comparison to untreated control cells (100% viability).
(§11) KB/HeLa and PC3 cells were cultivated in RPMI 1640 medium (Gibco, Cat. No. 42401-018) supplemented with 10% heat inactivated fetal calf serum (FCS, Biochrom AG, Cat. No. S0115), 2 mM L-glutamine (Gibco, Cat. No. 25030-24) and 2% Penicillin-Streptomycin (PenStrep, Gibco, Cat. No. 15140-122). RKOp21 cells were grown in DMEM+GlutaMAXTM-I medium (Gibco, Cat. No. 61965-026) supplemented with 10% heat inactivated fetal calf serum (FCS, Biochrom AG, Cat. No. S0115), 2 mM L-glutamine (Gibco, Cat. No. 25030-24), 2% Penicillin-Streptomycin (PenStrep, Gibco, Cat. No. 15140-122) and 1% 1M HEPES (Gibco, Cat. No. 15630-056). All cells were cultured at 37° C. in 5% CO2 humidified air.
(§12) On the first day of the experiment cells were harvested from exponential phase cultures by trypsination, counted and plated into 96 well flat-bottom micro titer plates depending on the cell line as listed below:
(§13) After a 24 h recovery to allow the cells to resume exponential growth, the test compounds were diluted immediately prior to use and transferred in 25 μl volume to the wells.
(§14) Following 2 days of continuous drug exposure 50 μl of freshly prepared XTT-PMS solution {2% 0.386 mg/ml PMS (N-Methyl Dibenzopyrazine Methylsulphate; Sigma, Cat. No. P9625) in PBS+98% 1 mg/ml XTT (Sodium 2,3-bis(2-methoxy-4-nitro-5-sulfophenyl)-5-[(phenylamino)carbonyl]-2H-Tetrazolium; Serva, Cat. No. 38450) in RPMI 1640 medium without phenol red} was added to the wells. To measure the proportion of living cells, the cells were incubated for 3 h with XTT-PMS reagent at 37° C., 5% CO2, humidified atmosphere allowing to form the formazan salt. The amount of soluble formazan salt produced by cellular reduction of XTT is quantified by measuring the absorbance at 490 nm using the Biomek® 2000 ELISA plate reader. %-inhibition (cytotoxicity) of each test compound was calculated in relation to untreated control cells. Inhibition curves were generated and IC50 values calculated by using GraphPad Prism.

[13] = system: KB/HeLa (human cervix carcinoma) cells; assay: XTT cytotoxicity assay, KB/HeLa cells; assay type: cell-based; details: XTT, 48 h exposure, read-out: KB/HELA [IC50 (μM)]
Experimental: as §6, §7, §8, §10, §11, §12, §13, §14

[14] = system: PC3, RKOp21 and SKOV-3 cell lines; assay: XTT cytotoxicity assay, mean over all three cell lines; assay type: cell-based, human; details: mean value over all three cell lines
Experimental: Following 2 days of continuous drug exposure 50 μl of freshly prepared XTT-PMS solution {2% 0.386 mg/ml PMS (N-Methyl Dibenzopyrazine Methylsulphate; Sigma, Cat. No. […] Serva, Cat. No. 38450) in RPMI 1640 medium without phenol red} was added to the wells. To measure the proportion of living cells, the cells were incubated for 3 h with XTT-PMS reagent at 37° C., 5% CO2, humidified atmosphere allowing to form the formazan salt. […] Inhibition curves were generated and IC50 values calculated by using GraphPad Prism. In the following table 7 cytotoxicity results (% inhibition of cell growth) obtained in the second set of experiments for selected compounds of the invention are presented in comparison to examples of the prior art (perifosine, miltefosine). The results presented are individual values for the respective cell line as well as the mean value over all three cell lines tested.

[15] = system: PC3 (human prostate carcinoma) cells; assay: XTT cytotoxicity assay, PC3 cells; assay type: cell-based; details: for PC3 % INH [31.6 μM]: second set of experiments; for IC50: XTT, 48 h exposure, read-out: PC3 [IC50 (μM)]
Experimental: as §6, §7, §8, §9, §10, §11, §12, §13, §14

[16] = system: Moraxella catarrhalis DMS 11994 (ATCC 43617); assay: Anti-bacterial bouillon microdilution assay (MIC), bacterium D; assay type: cell-based; details: ATCC43617, 24 h
Experimental: Selected compounds of the invention were tested in a bouillon microdilution assay method according to the DIN 58940 (www.din.de) guidelines for determination of susceptibility of bacterial strains with regard to cell growth inhibition. The assay method quantifies bacterial cell growth which corresponds to the turbidity of the liquid culture medium by photometric measurement carried out at 595 nm.
The method of MIC determination was performed according to DIN 58940-5. The volumina were adapted according to the microdilution method as described in DIN 58940-7 guideline.
Dependent on water solubility, compounds of the invention were dissolved either in water or ethanol in a concentration of 10 mg/ml. Subsequently, the stock was further diluted in water to a concentration of 512 μg/ml. The following serial dilutions (factor 2) were performed in water resulting in the following […] testing concentrations: 256 μg/ml, 128 μg/ml, 64 μg/ml, 32 μg/ml, 16 μg/ml, 8 μg/ml, 4 μg/ml, 2 μg/ml, 1 μg/ml, 0.5 μg/ml, 0.25 μg/ml and 0.125 μg/ml. Diluted compounds of the invention were transferred in 100 μl volume to the microtiter plate wells.
Pre-cultures of bacteria were grown in appropriate liquid media (refer to ATCC webpage, www.atcc.org) and afterwards were inoculated in corresponding liquid medium. 100 μl of the inoculums [adjusted to an amount of app. 1×10^6 microorganisms per ml (range of 10^5-10^8 microorganisms per ml)] were added to each of the testing compound concentrations and cultivated under the appropriate conditions.
Before and after incubation, bacterial growth was determined by photometric analysis against a positive control containing growing bacteria without compound and a sterile/negative control containing only the medium.

Compound | SKOV-3 % INH [100 μM] [11] [%] | RKOp21 % INH [31.6 μM] [12] [%] | IC50 [12] [µM] | IC50 [13] [µM] | Mean % INH [14] [%] | PC3 % INH [31.6 μM] [15] [%] | IC50 [15] [µM] | also measured
CCCCCCCCCCCCCCCCOCCCOP(=O)([O-])OCC[N+](C)(C)C [Compound 8, Phosphoric acid 3-hexadecyloxy-propyl ester 2-trimethyl-ammonium-ethyl ester] | – | – | – | – | – | – | – | MIC [1]: 2 µg/mL; MIC [2]: 0.75 µg/mL; MIC [3]: 2 µg/mL; MIC [4]: 2 µg/mL; MIC [5]: 0.75 µg/mL; MIC [6]: 1.5 µg/mL; MIC [7]: 1 µg/mL; MIC [8]: 2 µg/mL; MIC [9]: 0.75 µg/mL; MIC [10]: 0.75 µg/mL
CCCCCCCCC=CCCCCCCCCOP(=O)(O)OCCN1CCCCC1 [Compound 19] | 26.9 | 53.4 | > 100 | > 100 | 32.2 | 16.2 | > 100 | –
CCCCCCCCCCOCCOCCOP(=O)([O-])OCC[N+]1(C)CCCCC1 [Compound 20] | −6.1 | −12.4 | > 100 | > 100 | −1.7 | 13.4 | > 100 | –
CCCCCCCCCCCCCCCCCCOP(=O)(O)OCCn1ccnc1 [Compound 67] | – | – | – | – | – | – | – | IC50 ([12]; Homo sapiens): > 100 µM; IC50 ([13]; Homo sapiens, HeLa): > 100 µM; MIC [16]: 8 µg/mL (≈ 18 µM); IC50 ([15]; Homo sapiens, PC-3): > 100 µM
